The record followed here is ChEMBL document CHEMBL4387741, “Optimization of novel reversible Bruton's tyrosine kinase inhibitors identified using Tethering-fragment-based screens” (Bioorg Med Chem, 2019).

The target of assay [1] is Serine/threonine-protein kinase 35 (Homo sapiens) (UniProt Q8TDR2). Nature of the assay: Inhibition of wild-type human partial length STK35 (G182 to A534 residues) expressed in bacterial expression system at 1 uM by Kinomescan method relative to control.
Assay [2] has as its target Phosphatidylinositol 3-kinase catalytic subunit type 3 (Homo sapiens) (UniProt Q8NEB9). Nature of the assay: Inhibition of wild-type human partial length VPS34 (S282 to H879 residues) expressed in mammalian expression system at 1 uM by Kinomescan method relative to control.
Assay [3] addresses Tyrosine-protein kinase HCK (Homo sapiens) (UniProt P08631). The assay is described as follows: Inhibition of wild-type human full length HCK (M22 to P526 residues) expressed in bacterial expression system at 1 uM by Kinomescan method relative to control.
Assay [4] addresses Discoidin domain-containing receptor 2 (Homo sapiens) (UniProt Q16832). Nature of the assay: Inhibition of wild-type human partial length DDR2 (V555 to E855 residues) expressed in mammalian expression system at 1 uM by Kinomescan method relative to control.
For assay [5], the target named is Casein kinase I isoform gamma-1 (Homo sapiens) (UniProt Q9HCP0). Nature of the assay: Inhibition of wild-type human partial length CSNK1G1 (T15 to S353 residues) expressed in bacterial expression system at 1 uM by Kinomescan method relative to control.
The target of assay [6] is SRSF protein kinase 3 (Homo sapiens) (UniProt Q9UPE1). The assay is described as follows: Inhibition of wild-type human partial length SRPK3 (P41 to P567 residues) expressed in bacterial expression system at 1 uM by Kinomescan method relative to control.
For assay [7], the target named is Calcium-dependent protein kinase 1 (Plasmodium falciparum) (UniProt P62344). Nature of the assay: Inhibition of wild-type Plasmodium falciparum full length CDPK1 (M1 to S524 residues) expressed in mammalian expression system at 1 uM by Kinomescan method relative to control.
The target of assay [8] is Myosin-IIIb (Homo sapiens) (UniProt Q8WXR4). The assay is described as follows: Inhibition of wild-type human partial length MYO3B (M1 to D357 residues) expressed in bacterial expression system at 1 uM by Kinomescan method relative to control.
For assay [9], the system named is Phosphatidylinositol 4,5-bisphosphate 3-kinase catalytic subunit alpha isoform (Homo sapiens), P42336 [E545K]. Nature of the assay: Inhibition of human partial length PIK3CA E545K mutant (R108 to N1068 residues) expressed in mammalian expression system at 1 uM by Kinomescan method relative to control.
For assay [10], the target named is MAP kinase-activated protein kinase 5 (Homo sapiens) (UniProt Q8IW41). Nature of the assay: Inhibition of wild-type human partial length MAPKAPK5 (M1 to D322 residues) expressed in mammalian expression system at 1 uM by Kinomescan method relative to control.
Assay [11] has as its target MAP/microtubule affinity-regulating kinase 3 (Homo sapiens) (UniProt P27448). Nature of the assay: Inhibition of wild-type human full length MARK3 (M1 to L729 residues) expressed in bacterial expression system at 1 uM by Kinomescan method relative to control.
In assay [12] the target is ALK tyrosine kinase receptor (Homo sapiens) (UniProt Q9UM73). The assay is described as follows: Inhibition of wild-type human partial length ALK (I1088 to E1409 residues) expressed in mammalian expression system at 1 uM by Kinomescan method relative to control.
For assay [13], the target named is SNF-related serine/threonine-protein kinase (Homo sapiens) (UniProt Q9NRH2). Nature of the assay: Inhibition of wild-type human partial length SNRK (M1 to E339 residues) expressed in mammalian expression system at 1 uM by Kinomescan method relative to control.
Assay [14] addresses Interleukin-1 receptor-associated kinase 1 (Homo sapiens) (UniProt P51617). Nature of the assay: Inhibition of wild-type human partial length IRAK1 (R194 to S712 residues) expressed in mammalian expression system at 1 uM by Kinomescan method relative to control.
Assay [15] addresses Ephrin type-A receptor 1 (Homo sapiens) (UniProt P21709). The assay is described as follows: Inhibition of wild-type human partial length EPHA1 (V588 to I913 residues) expressed in bacterial expression system at 10 uM by Kinomescan method relative to control.
For assay [16], the target named is Serine/threonine-protein kinase MARK2 (Homo sapiens) (UniProt Q7KZI7). The assay is described as follows: Inhibition of wild-type human partial length MARK2 (M1 to R450 residues) expressed in bacterial expression system at 10 uM by Kinomescan method relative to control.
Assay [17] concerns the target Serine/threonine-protein kinase Sgk2 (Homo sapiens) (UniProt Q9HBY8). The assay is described as follows: Inhibition of wild-type human partial length SGK2 (L54 to C427 residues) expressed in mammalian expression system at 10 uM by Kinomescan method relative to control.
In assay [18] the target is LIM domain kinase 2 (Homo sapiens) (UniProt P53671). The assay is described as follows: Inhibition of wild-type human full length LIMK2 (M1 to P638 residues) expressed in bacterial expression system at 10 uM by Kinomescan method relative to control.
Assay [19] deals with Beta-adrenergic receptor kinase 1 (Homo sapiens) (UniProt P25098). Nature of the assay: Inhibition of wild-type human full length GRK2 (M1 to L689 residues) expressed in mammalian expression system at 10 uM by Kinomescan method relative to control.
For assay [20], the target named is Testis-specific serine/threonine-protein kinase 1 (Homo sapiens) (UniProt Q9BXA7). Nature of the assay: Inhibition of wild-type human full length TSSK1B (M1 to Q367 residues) expressed in bacterial expression system at 10 uM by Kinomescan method relative to control.
Assay [21] deals with Serine/threonine-protein kinase Nek4 (Homo sapiens) (UniProt P51957). Nature of the assay: Inhibition of wild-type human full length NEK4 (M1 to F841 residues) expressed in mammalian expression system at 10 uM by Kinomescan method relative to control.
Assay [22] addresses Tyrosine-protein kinase SYK (Homo sapiens) (UniProt P43405). Nature of the assay: Inhibition of wild-type human partial length SYK (D354 to N635 residues) expressed in bacterial expression system at 10 uM by Kinomescan method relative to control.
The target of assay [23] is Serine/threonine-protein kinase DCLK3 (Homo sapiens) (UniProt Q9C098). Nature of the assay: Inhibition of wild-type human partial length DCAMKL3 (E140 to V628 residues) expressed in bacterial expression system at 10 uM by Kinomescan method relative to control.
In assay [24] the target is Receptor-interacting serine/threonine-protein kinase 2 (Homo sapiens) (UniProt O43353). Nature of the assay: Inhibition of wild-type human partial length RIPK2 (M1 to K310 residues) expressed in bacterial expression system at 10 uM by Kinomescan method relative to control.
Assay [25] has as its target Serine/threonine-protein kinase 25 (Homo sapiens) (UniProt O00506). The assay is described as follows: Inhibition of wild-type human partial length YSK1 (V14 to H295 residues) expressed in bacterial expression system at 10 uM by Kinomescan method relative to control.
In assay [26] the target is Proto-oncogene tyrosine-protein kinase ROS (Homo sapiens) (UniProt P08922). Nature of the assay: Inhibition of wild-type human partial length ROS1 (A1921 to N2240 residues) expressed in bacterial expression system at 10 uM by Kinomescan method relative to control.
In assay [27] the target is Serine/threonine-protein kinase 4 (Homo sapiens) (UniProt Q13043). Nature of the assay: Inhibition of wild-type human full length MST1 (M1 to F487 residues) expressed in bacterial expression system at 10 uM by Kinomescan method relative to control.
Sequence of Serine/threonine-protein kinase 4 (Homo sapiens) (Q13043 whole entry, the tested form may be a part): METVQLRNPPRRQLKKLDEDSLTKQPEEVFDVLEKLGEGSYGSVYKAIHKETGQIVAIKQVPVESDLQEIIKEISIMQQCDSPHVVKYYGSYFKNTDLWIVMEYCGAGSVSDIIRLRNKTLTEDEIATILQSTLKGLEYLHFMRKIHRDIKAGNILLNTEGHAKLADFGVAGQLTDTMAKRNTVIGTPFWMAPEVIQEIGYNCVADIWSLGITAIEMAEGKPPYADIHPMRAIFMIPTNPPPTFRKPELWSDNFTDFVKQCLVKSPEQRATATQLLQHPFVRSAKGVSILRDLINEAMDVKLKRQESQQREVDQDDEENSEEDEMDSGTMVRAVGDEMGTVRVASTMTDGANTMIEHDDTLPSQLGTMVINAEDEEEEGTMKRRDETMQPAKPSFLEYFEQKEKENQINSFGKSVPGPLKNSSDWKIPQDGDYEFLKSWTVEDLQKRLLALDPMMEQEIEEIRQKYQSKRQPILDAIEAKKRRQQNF

Sequence of Serine/threonine-protein kinase 35 (Homo sapiens) (Q8TDR2 whole entry, the tested form may be a part): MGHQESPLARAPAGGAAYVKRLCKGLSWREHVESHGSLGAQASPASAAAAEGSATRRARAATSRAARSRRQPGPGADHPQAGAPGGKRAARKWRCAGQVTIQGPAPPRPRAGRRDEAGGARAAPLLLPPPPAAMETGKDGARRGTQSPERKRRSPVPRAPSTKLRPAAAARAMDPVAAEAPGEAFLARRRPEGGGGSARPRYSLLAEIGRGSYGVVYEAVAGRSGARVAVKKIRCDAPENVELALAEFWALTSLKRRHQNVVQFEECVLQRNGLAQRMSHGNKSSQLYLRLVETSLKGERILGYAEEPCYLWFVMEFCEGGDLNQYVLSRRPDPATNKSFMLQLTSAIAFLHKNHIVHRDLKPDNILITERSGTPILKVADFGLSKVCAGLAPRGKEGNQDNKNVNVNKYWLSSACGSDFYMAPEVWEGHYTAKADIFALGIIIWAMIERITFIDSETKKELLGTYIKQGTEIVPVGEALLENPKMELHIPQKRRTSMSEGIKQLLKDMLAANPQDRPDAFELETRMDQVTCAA
Sequence of Phosphatidylinositol 4,5-bisphosphate 3-kinase catalytic subunit alpha isoform (Homo sapiens), P42336 [E545K] (P42336 whole entry E545K, the tested form may be a part, canonical isoform): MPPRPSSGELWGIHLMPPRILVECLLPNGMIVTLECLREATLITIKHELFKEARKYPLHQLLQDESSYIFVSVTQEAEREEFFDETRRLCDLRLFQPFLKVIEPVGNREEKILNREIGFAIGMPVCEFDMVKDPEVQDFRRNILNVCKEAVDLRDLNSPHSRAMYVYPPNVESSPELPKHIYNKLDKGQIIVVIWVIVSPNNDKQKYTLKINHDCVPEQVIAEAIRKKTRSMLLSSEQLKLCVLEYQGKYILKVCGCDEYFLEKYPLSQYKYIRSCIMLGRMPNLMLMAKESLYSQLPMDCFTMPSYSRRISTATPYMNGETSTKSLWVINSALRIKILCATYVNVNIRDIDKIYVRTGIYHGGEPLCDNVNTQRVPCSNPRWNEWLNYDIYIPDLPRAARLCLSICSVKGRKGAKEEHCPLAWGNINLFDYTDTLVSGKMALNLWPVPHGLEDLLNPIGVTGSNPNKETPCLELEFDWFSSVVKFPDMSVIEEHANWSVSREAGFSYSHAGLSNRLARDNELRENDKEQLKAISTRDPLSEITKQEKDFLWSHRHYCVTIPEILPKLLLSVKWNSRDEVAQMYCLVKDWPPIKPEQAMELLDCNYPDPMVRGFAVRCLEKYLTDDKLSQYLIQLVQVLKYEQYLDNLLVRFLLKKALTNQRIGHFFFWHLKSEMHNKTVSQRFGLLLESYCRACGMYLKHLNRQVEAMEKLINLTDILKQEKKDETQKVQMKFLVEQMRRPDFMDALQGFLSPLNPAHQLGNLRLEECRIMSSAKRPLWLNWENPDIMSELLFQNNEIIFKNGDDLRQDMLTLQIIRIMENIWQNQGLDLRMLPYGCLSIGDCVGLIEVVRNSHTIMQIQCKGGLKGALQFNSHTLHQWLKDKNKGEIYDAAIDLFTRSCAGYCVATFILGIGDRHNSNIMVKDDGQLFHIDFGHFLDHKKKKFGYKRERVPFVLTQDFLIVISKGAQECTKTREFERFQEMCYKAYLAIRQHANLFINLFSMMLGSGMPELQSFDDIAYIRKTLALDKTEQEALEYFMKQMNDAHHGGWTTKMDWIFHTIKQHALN
Sequence of LIM domain kinase 2 (Homo sapiens) (P53671 whole entry, looked up, the tested form may be a part): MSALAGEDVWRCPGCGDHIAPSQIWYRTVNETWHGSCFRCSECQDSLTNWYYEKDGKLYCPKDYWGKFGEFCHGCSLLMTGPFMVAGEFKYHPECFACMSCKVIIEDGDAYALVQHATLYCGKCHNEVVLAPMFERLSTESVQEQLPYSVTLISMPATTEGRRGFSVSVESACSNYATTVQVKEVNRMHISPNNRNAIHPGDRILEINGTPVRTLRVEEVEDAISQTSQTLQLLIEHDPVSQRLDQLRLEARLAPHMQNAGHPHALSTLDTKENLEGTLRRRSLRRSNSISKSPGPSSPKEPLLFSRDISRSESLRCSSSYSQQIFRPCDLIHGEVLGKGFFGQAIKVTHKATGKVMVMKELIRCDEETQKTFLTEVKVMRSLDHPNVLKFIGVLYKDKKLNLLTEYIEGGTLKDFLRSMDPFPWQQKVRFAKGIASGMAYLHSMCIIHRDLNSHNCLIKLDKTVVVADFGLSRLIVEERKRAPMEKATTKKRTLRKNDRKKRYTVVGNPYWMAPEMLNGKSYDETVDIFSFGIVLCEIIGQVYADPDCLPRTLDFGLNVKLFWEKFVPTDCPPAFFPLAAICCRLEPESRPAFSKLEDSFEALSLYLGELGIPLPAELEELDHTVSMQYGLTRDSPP
Sequence of MAP/microtubule affinity-regulating kinase 3 (Homo sapiens) (P27448 whole entry, looked up, the tested form may be a part): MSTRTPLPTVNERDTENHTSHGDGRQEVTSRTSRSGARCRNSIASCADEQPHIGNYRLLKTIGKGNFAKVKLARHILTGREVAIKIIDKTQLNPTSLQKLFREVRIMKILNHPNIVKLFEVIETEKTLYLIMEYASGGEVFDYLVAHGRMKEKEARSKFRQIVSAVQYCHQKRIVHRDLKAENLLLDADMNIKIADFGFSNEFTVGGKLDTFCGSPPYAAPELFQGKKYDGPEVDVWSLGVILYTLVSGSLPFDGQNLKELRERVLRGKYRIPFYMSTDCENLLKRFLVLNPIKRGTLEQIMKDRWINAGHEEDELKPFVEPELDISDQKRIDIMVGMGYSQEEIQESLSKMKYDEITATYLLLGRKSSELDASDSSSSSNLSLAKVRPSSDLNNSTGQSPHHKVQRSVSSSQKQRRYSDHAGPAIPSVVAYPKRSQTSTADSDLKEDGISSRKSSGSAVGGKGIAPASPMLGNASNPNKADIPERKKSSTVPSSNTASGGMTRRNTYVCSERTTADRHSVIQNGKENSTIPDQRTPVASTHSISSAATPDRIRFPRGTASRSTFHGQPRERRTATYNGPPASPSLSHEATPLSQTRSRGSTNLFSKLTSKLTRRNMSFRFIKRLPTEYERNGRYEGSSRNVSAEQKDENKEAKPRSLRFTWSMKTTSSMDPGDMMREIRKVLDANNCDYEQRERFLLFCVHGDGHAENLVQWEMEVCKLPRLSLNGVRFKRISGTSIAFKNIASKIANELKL
Sequence of SRSF protein kinase 3 (Homo sapiens) (Q9UPE1 whole entry, the tested form may be a part): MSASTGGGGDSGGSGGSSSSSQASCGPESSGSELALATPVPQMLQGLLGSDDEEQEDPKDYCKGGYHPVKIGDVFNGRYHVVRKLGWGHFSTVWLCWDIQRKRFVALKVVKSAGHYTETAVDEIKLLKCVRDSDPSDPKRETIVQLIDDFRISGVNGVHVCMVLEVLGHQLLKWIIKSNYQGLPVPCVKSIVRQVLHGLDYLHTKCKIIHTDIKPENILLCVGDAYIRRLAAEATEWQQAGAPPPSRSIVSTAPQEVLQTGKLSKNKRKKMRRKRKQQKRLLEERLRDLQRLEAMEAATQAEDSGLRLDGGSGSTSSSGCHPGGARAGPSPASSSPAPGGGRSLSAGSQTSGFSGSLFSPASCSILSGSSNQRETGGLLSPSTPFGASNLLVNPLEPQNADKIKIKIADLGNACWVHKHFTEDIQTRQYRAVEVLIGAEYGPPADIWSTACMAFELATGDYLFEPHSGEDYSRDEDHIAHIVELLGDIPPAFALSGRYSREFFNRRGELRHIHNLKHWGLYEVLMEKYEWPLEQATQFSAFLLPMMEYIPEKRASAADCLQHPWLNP
Sequence of Serine/threonine-protein kinase Nek4 (Homo sapiens) (P51957 whole entry, looked up, the tested form may be a part): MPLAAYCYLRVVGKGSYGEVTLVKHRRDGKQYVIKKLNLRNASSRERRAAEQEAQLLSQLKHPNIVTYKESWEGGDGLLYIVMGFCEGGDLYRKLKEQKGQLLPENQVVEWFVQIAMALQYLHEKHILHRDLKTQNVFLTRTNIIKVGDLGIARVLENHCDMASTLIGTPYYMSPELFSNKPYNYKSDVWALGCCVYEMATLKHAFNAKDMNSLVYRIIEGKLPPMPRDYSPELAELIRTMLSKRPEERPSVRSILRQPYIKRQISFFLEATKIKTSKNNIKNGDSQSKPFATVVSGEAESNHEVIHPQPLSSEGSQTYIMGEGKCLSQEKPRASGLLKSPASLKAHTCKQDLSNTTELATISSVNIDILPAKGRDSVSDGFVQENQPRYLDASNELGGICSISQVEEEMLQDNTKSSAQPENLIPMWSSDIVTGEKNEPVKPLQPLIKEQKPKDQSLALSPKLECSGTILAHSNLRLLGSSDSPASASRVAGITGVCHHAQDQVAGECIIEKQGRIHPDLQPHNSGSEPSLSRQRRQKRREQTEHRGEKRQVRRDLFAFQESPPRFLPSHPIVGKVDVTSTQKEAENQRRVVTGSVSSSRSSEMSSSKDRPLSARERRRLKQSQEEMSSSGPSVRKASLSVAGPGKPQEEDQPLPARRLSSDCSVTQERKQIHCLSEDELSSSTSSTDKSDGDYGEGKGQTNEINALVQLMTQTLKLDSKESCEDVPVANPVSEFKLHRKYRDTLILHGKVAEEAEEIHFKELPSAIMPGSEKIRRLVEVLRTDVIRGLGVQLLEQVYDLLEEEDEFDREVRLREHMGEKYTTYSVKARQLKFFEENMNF

In general, inhibition refers to how much of the control response was suppressed. In the case of `O=C(Nc1cccc([C@@H]2CN(c3ncnc4[nH]ccc34)CCN2CCO)c1)Nc1c(F)cccc1N1CCCC1`, the inhibition came out at 100% in assay [1]; 100% in assay [2]; 76% in assay [3]; 73% in assay [4]; 100% in assay [5]; 68% in [6]. Also, the inhibition is 71% in assay [7]; 94% in assay [8]; 56% in [9]; 100% in assay [10]; 100% in assay [11]; 98% in [12]. In addition, the inhibition in [13] turned out to be 88%; in assay [14], 92%.
With `O=C(Nc1cccc([C@H]2CCCN(c3ncnc4[nH]ccc34)C2)c1)Nc1ccccc1N1CCCC1`, the inhibition in [15] stood at 89%; in assay [16] it was 41%; in assay [17] it was 34%; in assay [18] it was 100%; in [19], 98%; in assay [20], 100%. Besides, the inhibition was found to be 87% in [21]; 52% in assay [22]; 100% in assay [23]; 100% in assay [24]; 100% in assay [25]; 72% in assay [26]. This compound gave an inhibition in assay [27] of 47%.
